# Test system: Leptosphaeria nodorum
# Assay: Leptosphaeria nodorum test (wheat)/protective
# Format: in vivo
# Conditions: Parastagonospora nodorum, 240 h, protective, evaluation 10 days after inoculation
# Procedure: Leptosphaeria nodorum test (wheat)/protective Solvent: 50 parts by weight of N,N-dimethylacetamide Emulsifier: 1 part by weight of alkylaryl polyglycol ether To prepare a suitable preparation of active compound, 1 part by weight of active compound or active compound combination is mixed with the stated amounts of solvents and emulsifier, and the concentrate is diluted with water to the desired concentration, or a commercial formulation of active compound or active compound combination with water is diluted with water to the desired concentration. To test for protective activity, young plants are sprayed with the active compound preparation at the stated application rate. After the spray coating has dried on, the plants are sprayed with a spore suspension of Leptosphaeria nodorum. The plants remain in an incubation cabin at 20° C. and 100% relative atmospheric humidity for 48 hours. The plants are placed in a greenhouse at a temperature of about 20° C. and a relative atmospheric humidity of 80%. Evaluation is carried out 10 days after inoculation. Here, 0% means an efficacy which corresponds to that of the control, whereas an efficacy of 100% means that no infection is observed.
Structure (SMILES),"Emax at 82.5 ppm (application rate 82.5 ppm, read-out: % efficacy (converted)) [%]","Emax at 375 ppm (application rate 375 ppm, read-out: % efficacy) [%]","Emax at 500 ppm (application rate 500 ppm, read-out: % efficacy) [%]","Emax at 25 ppm (application rate 25 ppm, read-out: % efficacy) [%]"
"O=C1C2CC=CCC2C(=O)N1SC(Cl)(Cl)Cl (stereo not shown) [Captan, 3a,4,7,7a-tetrahydro-2-[(trichloromethyl)thio]-1H-isoindole-1,3(2H)-dione]",50,25,25,
"CON=C(C(=O)OC)c1ccccc1CO/N=C(\C)c1cccc(C(F)(F)F)c1 [Trifloxystrobin, 2-[α-{[(α-methyl-3-trifluoromethyl-benzyl)imino]-oxy}-o-tolyl]-glyoxylic acid methyl ester O-methyloxime]",,,,50

# — patent publication US20090036512A1, “FUNGICIDAL ACTIVE COMPOUND COMBINATION” (priority 2005, published 2009)
